{"source": "patent US20050123615A1", "about": "“Controlled release dosage forms of azithromycin” (Pfizer Inc, priority 2003, published 2005)", "origin": "cited, not measured here", "conditions": "3,995 human patients, all dose levels combined, oral", "data": [{"smiles": "CC[C@H]1OC(=O)[C@H](C)[C@@H](O[C@H]2C[C@@](C)(OC)[C@@H](O)[C@H](C)O2)[C@H](C)[C@@H](O[C@@H]2O[C@H](C)C[C@H](N(C)C)[C@H]2O)[C@](C)(O)C[C@@H](C)CN(C)[C@H](C)[C@@H](O)[C@]1(C)O", "note": "[azithromycin, 9a-aza-9a-methyl-9-deoxo-9a-homoerythromycin A]", "values": [{"measurement": "patients reporting GI side effects", "value": 9.6, "unit": "%"}, {"measurement": "patients reporting abdominal pain", "value": 2.5, "unit": "%"}, {"measurement": "patients reporting diarrhea", "value": 3.6, "unit": "%"}, {"measurement": "patients reporting nausea", "value": 2.6, "unit": "%"}]}]}
